Tests used:
Format in all cases: cell-based
[1] = target: T1, PSEN1 Y154A–APH1A γ-secretase complex (Homo sapiens, UniProt P49768, Y154A); test: Aβ40 secretion, MEF cell pool restored with PSEN1 Y154A–APH1A; conditions: decimal comma
T1 construct: expressed in transfected cells; host or cells: Psen1/2 double KO/Aph1ABC triple KO MEFs, pools without clonal selection
Protocol: (§1) We turned to experimental site–directed mutagenesis and selected a series of amino acids (Fig. 3) in the entrance channel for mutation to alanine. […] More importantly, they were all enzymatically active as shown by the secretion of Aβ40 in the supernatants of the cell cultures (Fig. 3B).
(§2) Conditional Psen1/2 double KO mice were crossed with conditional Aph1ABC triple KO mice ([29], [52], [58], [59]). At embryonic day 7.5, embryos were dissected and dissociated, and cells were plated in the presence of Dulbecco’s modified Eagle’s medium (DMEM)/F12 50% fetal calf serum (FCS) (Invitrogen). Primary MEFs were immortalized by transduction with LargeT antigen. Psen1/2 double KO/Aph1ABC triple KO MEFs were generated by transduction with a Cre-GFP–expressing adenoviral vector, and GFP-positive MEFs were sorted by fluorescence-activated cell sorting analysis. Psen1/2 Aph1ABC-deficient MEFs were maintained in DMEM/f12 10% FCS. To rescue γ-secretase expression, Psen1/2 double KO/Aph1ABC triple KO MEFs were transduced using Murine Stem Cell Virus retroviral vector system (pMSCV) viral vectors (Clontech) containing the human coding sequences of the different PSEN and APH1 homologs and the zeocin selection marker. An Internal Ribosome Entry Site sequence was cloned between the coding sequences for PSEN and APH1 to ensure co-expression of both proteins. Stable transfected cell lines were selected using 500-μg/ml zeocin (Invitrogen). Four different combinations were made: PSEN1 and APH1AL, PSEN1 and APH1B, PSEN2 and APH1AL, and PSEN2 and APH1B. These cell lines were transduced with pMSCV viral vectors (Clontech) expressing APP-C99-GFP-puromycin. […]
The number of plated cells and incubation times were determined in respect to linearity of Aβ peptide secretion, the dynamic range of Aβ peptide quantification in the medium, and sensitivity to dimethylsulfoxide (DMSO). […] The cell viability was assessed using the CellTiter-Glo Luminescent assay (Promega) that measures ATP production. […] We however measured five compounds at the Leuven site and noticed that absolute IC50 values were different (Fig. S2). […]

[2] = target: T2, PSEN1-APH1A γ-secretase complex (Homo sapiens, UniProt P49768); test: Aβ40 secretion by MEF cell line expressing only PSEN1-APH1A γ-secretase (APP-C99-GFP reporter); conditions: 8 h, Beerse site unless otherwise indicated, read-out: IC50, Aβ40 peptides
T2 construct: expressed in transfected cells; host or cells: Psen1/2 double KO/Aph1ABC triple KO MEFs, pMSCV retroviral PSEN-IRES-APH1
Excerpt: (§3) Mouse embryonic fibroblast (MEF) cells deficient for the Psen and Aph1 genes (Psen1/2^−/−, Aph1ABC^−/−) were reconstituted with human PSEN1 or PSEN2 and with human APH1A or APH1B to generate four independent cell lines, each constitutively expressing exclusively one type of γ-secretase complex (Fig. S1A) ([19]). A human APP-C99-GFP reporter was introduced to enable the measurement of Aβ peptides in the conditioned media of the cells to monitor γ-secretase activity. The assay was established in a 96-well format.
(§4) Conditional Psen1/2 double KO mice were crossed with conditional Aph1ABC triple KO mice ([29], [52], [58], [59]). At embryonic day 7.5, embryos were dissected and dissociated, and cells were plated in the presence of Dulbecco’s modified Eagle’s medium (DMEM)/F12 50% fetal calf serum (FCS) (Invitrogen). Primary MEFs were immortalized by transduction with LargeT antigen. Psen1/2 double KO/Aph1ABC triple KO MEFs were generated by transduction with a Cre-GFP–expressing adenoviral vector, and GFP-positive MEFs were sorted by fluorescence-activated cell sorting analysis. Psen1/2 Aph1ABC-deficient MEFs were maintained in DMEM/f12 10% FCS. To rescue γ-secretase expression, Psen1/2 double KO/Aph1ABC triple KO MEFs were transduced using Murine Stem Cell Virus retroviral vector system (pMSCV) viral vectors (Clontech) containing the human coding sequences of the different PSEN and APH1 homologs and the zeocin selection marker. An Internal Ribosome Entry Site sequence was cloned between the coding sequences for PSEN and APH1 to ensure co-expression of both proteins. Stable transfected cell lines were selected using 500-μg/ml zeocin (Invitrogen). Four different combinations were made: PSEN1 and APH1AL, PSEN1 and APH1B, PSEN2 and APH1AL, and PSEN2 and APH1B. These cell lines were transduced with pMSCV viral vectors (Clontech) expressing APP-C99-GFP-puromycin. After puromycin selection (5 μg/ml), GFP-positive cells were selected through FACS sorting. For the alanine mutagenesis experiment, pMSCV PSEN1-APH1A viral vectors were generated by using a long PCR-based QuikChange strategy (Stratagene). Stable cell lines without clonal selection were generated for each mutant as described above. All cell lines were regularly tested for the absence of mycoplasma and used for maximum 20 passages in culture.
(§5) The number of plated cells and incubation times were determined in respect to linearity of Aβ peptide secretion, the dynamic range of Aβ peptide quantification in the medium, and sensitivity to dimethylsulfoxide (DMSO). […] The cell viability was assessed using the CellTiter-Glo Luminescent assay (Promega) that measures ATP production. […]

[3] = target: T3, PSEN1-APH1B γ-secretase complex (Homo sapiens, UniProt P49768); test: Aβ40 secretion by MEF cell line expressing only PSEN1-APH1B γ-secretase (APP-C99-GFP reporter); conditions: 8 h, Beerse site unless otherwise indicated, read-out: IC50, Aβ40 peptides
T3 construct: expressed in transfected cells; host or cells: Psen1/2 double KO/Aph1ABC triple KO MEFs, pMSCV retroviral PSEN-IRES-APH1
Excerpt: as §3, §4
(§6) The number of plated cells and incubation times were determined in respect to linearity of Aβ peptide secretion, the dynamic range of Aβ peptide quantification in the medium, and sensitivity to dimethylsulfoxide (DMSO). […] MEF cells were plated in DMEM F12 supplemented with 10% FCS at 10,000 cells per well in 96-well clear bottom plates in the late afternoon and cultured for 16 h at 37 °C, 5% CO2. In the morning of the second day, the medium was replaced with 60 μl of DMEM/F12 supplemented with 2% FCS, and GSI or DMSO (controls) were added. Compounds were tested in serial dilutions with concentrations ranging from […] to 0.1 nM with 3-fold changes. The final concentration of DMSO in all wells was 0.2%. Plates were put in the incubator again at 37 °C, 5% CO2. After 8 h, the culture media were collected, and 30 μl was used to measure Aβ40 peptides. The cell viability was assessed using the CellTiter-Glo Luminescent assay (Promega) that measures ATP production. All screens were performed at one site, and reported IC50 values throughout the manuscript are from this site (Beerse) unless otherwise indicated.
Standard 96-well SECTOR plates (MSD) were coated with 1.5 μg/ml anti-Aβ JRFcAβ40/28 capture antibody in a final volume of 50 μl of PBS 0.05% Tween 20.

[4] = target: T4, PSEN2-APH1A γ-secretase complex (Homo sapiens, UniProt P49810+Q92542+Q96BI3+Q9NZ42); test: Aβ40 secretion by MEF cell line expressing only PSEN2-APH1A γ-secretase (APP-C99-GFP reporter); conditions: 8 h, Beerse site unless otherwise indicated, read-out: IC50, Aβ40 peptides
T4 construct: expressed in transfected cells; host or cells: Psen1/2 double KO/Aph1ABC triple KO MEFs, pMSCV retroviral PSEN-IRES-APH1
Excerpt: as §3
as §2, with “(Invitrogen).” for “(Invitrogen). Four different combinations were made: PSEN1 and APH1AL, PSEN1 and APH1B, PSEN2 and APH1AL, and PSEN2 and APH1B. These cell lines were transduced with pMSCV viral vectors (Clontech) expressing APP-C99-GFP-puromycin.”
as §5

[5] = target: T5, PSEN1 L172A–APH1A γ-secretase complex (Homo sapiens, UniProt P49768+Q92542+Q96BI3+Q9NZ42, L172A); test: Aβ40 secretion, MEF cell pool restored with PSEN1 L172A–APH1A; conditions: PSEN1 L172A (TM3)–APH1A cell pool; N = 3 to 4; mean (95% CI); decimal comma
T5 construct: expressed in transfected cells; host or cells: Psen1/2 double KO/Aph1ABC triple KO MEFs, pools without clonal selection
Protocol: as §1, §4
as §6, with “indicated. We however measured five compounds at the Leuven site and noticed that absolute IC50 values were different (Fig. S2). The main goal of the current work is to explore the basis for inhibitor selectivity for different γ-secretases, and selectivity was consistent in the assays at the two sites (Fig. S2).” for “indicated.”
Standard 96-well SECTOR plates (MSD) were coated with 1.5 μg/ml anti-Aβ JRFcAβ40/28 capture antibody in a final volume of 50 μl of PBS 0.05% Tween 20. After overnight incubation at 4 °C, the plates were five times rinsed with PBS 0.05% Tween 20 and blocked with 150 μl per well of casein buffer (PBS with 1% casein, pH 7.4) for 4 h at room temperature. Standards (synthetic human Aβ 1–40) were diluted in culture media. […]

IC50 ([1]; PSEN1 Y154A (TM2)–APH1A cell pool, N = 3 to 4, mean (95% CI)) | IC50 fold change to WT ([1]; PSEN1 Y154A–APH1A cell pool) | IC50 [2] | IC50 [3] | IC50 [4] | IC50 [5] | SMILES
0.103 µM | 0,611 fold |  |  |  |  | C[C@H](NC(=O)Cc1cc(F)cc(F)c1)C(=O)N[C@H](C(=O)OC(C)(C)C)c1ccccc1 [DAPT]
 |  | 22 nM | 6 nM | 1670 nM | 0.0094 µM | O=S(=O)(c1ccc(Cl)cc1)N1[C@H]2CC[C@@H]([C@H]1c1ccc(C(F)(F)F)cc1)[C@@H](O)C2 [(+)-9b]

Reference: article PMC10318456, “Selective inhibitors of the PSEN1–gamma-secretase complex” (The Journal of Biological Chemistry, 2023)
